Data reported in the METLIN SMRT retention time set (Domingo-Almenara et al. 2019).

Experiment: gradient 5% acetonitrile 3 min, to 50% in 2 min, to 85% in 15 min, held 3 min, 100 µL/min
Details: column: Zorbax Extend-C18 2.1 x 50 mm; eluents: water / acetonitrile, 0.1% formic acid
In short: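 Each retention time is based on an adduct peak selected computationally and verified by manual inspection. Measurements used HPLC–quadrupole time-of-flight mass spectrometry in positive and negative ionization mode on mixtures of ~100 pure standards. Chromatography ran on a Zorbax Extend-C18 column (2.1 × 50 mm, 1.8 μm) at 100 μL/min with water and acetonitrile, each containing 0.1% formic acid, and dead and dwell volumes of 40 μL and 900 μL.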

SMILES | RP-LC retention time [s]
O=C(Cn1nc(Cc2ccncc2)c2ccccc2c1=O)Nc1ccc(Cl)cn1 | 618
OC[C@@H]1CNC[C@H]1C1CCN(Cc2cccc(Cl)c2F)CC1 | 806
Nc1nc(CN2CCN(c3ncccn3)CC2)nc(N2CCCCC2)n1 | 611
Cc1cccc(NC(=O)NCC(c2cccnc2)c2c[nH]c3ccccc23)c1 (configuration not stated) | 673
COc1ccc(-c2c(C)noc2NC(C)=O)cc1S(=O)(=O)Nc1cccc(C#N)c1 | 708
CCN(CC)c1ncc2c(n1)CCC(C(=O)Nc1ccc(OC)c(F)c1)C2 (configuration not stated) | 726
CC(NC(=O)Cc1ccc(Cl)cc1)C(=O)Nc1nc2ccccc2[nH]1 (configuration not stated) | 680
CCN(CC)c1ccc(NC(=O)C2CCCN(S(=O)(=O)c3cn(C(C)C)cn3)C2)c(C)c1 (configuration not stated) | 622
Cc1cc(=O)n(CC(=O)NCc2ccc(F)cc2)c(N2CCCCC2)n1 | 656
O=C(Nc1cnc(N2CCOCC2)nc1)c1cc(F)ccc1Cl | 746
Cn1ncc2c(N3CCCC3)nc(C(=O)NCc3ccc(C(F)(F)F)cc3)nc21 | 905
O=C(CN1CC=C(c2cnn(-c3ccccc3)c2)CC1)NC1CCCCCC1 | 702
O=C(Cc1cccc(Cl)c1)Nc1cc(-c2ccccn2)no1 | 843
O=C(N[C@H]1C[C@@H]2C[C@H]1N(C(=O)c1ccc(F)c(Cl)c1)C2)c1ccccc1 | 850
Cc1cccc(-c2noc(Cn3c(=O)n(Cc4cccc(Cl)c4)c(=O)c4sccc43)n2)c1 | 1230
COc1cccc2c1OC1(C)CC2C(S(=O)(=O)c2ccc(Cl)cc2)C(=O)N1C (configuration not stated) | 938
O=C(NCC1CCN(C(=O)Nc2ccc(F)cc2)CC1)c1ccccn1 | 674
C=CCN1C(=O)COc2ccc(-c3nc(NC(=O)c4ccncc4)sc3C)cc21 | 810
COC(=O)c1ccc(NS(=O)(=O)c2cc3n(c2)CCN(C)C3=O)cc1 | 682
Nc1ccccc1-c1nc2ccncc2[nH]1 | 708
CC(=O)/C=C1\SC(CC(=O)O)C(=O)N1c1ccccc1 (configuration not stated) | 631
COc1ccc(OC)c(NC(=O)c2c(OC)cc(=O)n3c2CCCC3)c1 | 695
Ic1cccc(/C=N/Nc2nc(N3CCOCC3)nc(N(c3ccccc3)c3ccccc3)n2)c1 | 1140

SMILES | RP-LC retention time [s]
O=C1c2ccccc2C(=O)c2nc(-c3ccccc3)c(-c3ccccc3)nc21 | 1030
CCc1nnc([C@@H]2CC(F)(F)CN2C(=O)c2noc(C)c2COC)o1 | 752
Cc1ccc(-c2csc(Cc3nc(-c4ccc5c(c4)OCO5)no3)n2)cc1C | 1280
COc1cc(CN2C[C@@H]3C(=O)N(Cc4ccc5c(c4)OCO5)C(=O)[C@@H]3C2)cc(OC)c1 | 741
Cc1ccccc1N1CCN(C(=O)C2CC(=O)N(CCc3ccccc3)C2)CC1 (configuration not stated) | 725
Cc1csc(-c2cc(S(=O)(=O)NCc3ccc4c(c3)OCO4)cn2CC(=O)N2CCCC2)n1 | 835
CC(C)CNC(=O)CCc1nc2ccccc2n(CC(=O)NCc2ccccc2Br)c1=O | 847
Cc1ccc2nc(C3CN(C(=O)c4c(-c5ccccc5Cl)noc4C)C3)[nH]c2c1 | 598
O=C(NCCn1nc(-c2ccco2)ccc1=O)c1n[nH]c2ccccc12 | 643
Cc1cccc(N(C(=O)Nc2ccccc2C)C2=NCCC2)c1 | 1100
Cc1nn(-c2ccc(-c3ccccc3)nn2)c(C)c1S(=O)(=O)NCc1ccc(F)cc1F | 990
Cc1nc(Nc2ccc(F)cn2)sc1C(=O)NCCc1ccc(Cl)cc1 | 936
CCn1c(=O)oc2cc(-c3noc(-c4cc(Cl)ccc4F)n3)ccc21 | 1180
O=C(Nc1nccs1)c1csc(Nc2ccccc2)n1 | 815
O=C(Cc1cccs1)N1CCCC1c1cccc(F)c1 (configuration not stated) | 817
CCOC(=O)c1c(C)oc2ncnc(NCCN(C)Cc3ccccc3)c12 | 688
O=c1cc(CSc2nc(NCc3ccc4c(c3)OCO4)c3ccccc3n2)nc2ccccn12 | 635
CC(C)CCNC(=O)c1ccc2c(c1)nc(Nc1n[nH]c3ccc(-c4ccccc4OC(F)(F)F)cc13)n2C1CCC(O)CC1 (configuration not stated) | 957
COc1ccc(-c2cn3c(CC(=O)Nc4ccccc4OC)csc3n2)cc1 | 748
Cc1ccc(NC(=O)NC2CCN(c3ccc(C)cc3)C2=O)cc1 (configuration not stated) | 853
CCCNC(=O)C1CCCN(c2ccc(SCC(=O)Nc3c(C)cccc3CC)nn2)C1 (configuration not stated) | 650
CCN(c1cccc(C)c1)S(=O)(=O)c1cc2n(c1)CCCNC2=O | 720
CC(C)NC(=O)c1nnn(-c2ccccc2)c1-c1cccnc1 | 713

SMILES | RP-LC retention time [s]
COC(=O)c1cc(OC)c(OC)cc1NC(=O)CCc1ccc(C)o1 | 919
CCCc1ccc(S(=O)(=O)N2CCN(c3cnn4c(C5CC5)nnc4c3)CC2)cc1 | 856
CCOC1CCOC2(CCN(C(=O)c3ccoc3)CC2)C1 (configuration not stated) | 686
Cc1ccc(Cn2c(N3CCCC(C(=O)NCC(C)C)C3)nc3ccsc3c2=O)cc1 (configuration not stated) | 955
COc1ccc2[nH]c(-c3ccccc3)c(CCNC(C)=O)c2c1 | 832
O=C(CSc1nccn1Cc1ccc(Cl)cc1)NCCc1ccccc1 | 644
O=C1CCSc2ccc(S(=O)(=O)N3CCC(C(=O)NCc4ccccc4)CC3)cc2N1 | 761
CCc1cc(N2CCN(C(=O)COc3ccc(F)cc3)CC2)nc2nncn12 | 566
CC(=O)Nc1cccc(-c2nc(-c3ccc4ncn(C(C)C)c4c3)no2)c1 | 660
CN(C)c1ccc(CCCNS(=O)(=O)c2ccc(Cl)s2)cc1 | 655
CCN(CC)CCCNC(=O)c1noc2c1CCCCC2 | 632
COC(=O)c1[nH]c2c(c1C)C(=O)CC(c1ccccc1)C2 (configuration not stated) | 860
Cc1nnc2ccc(N3CCC(C(=O)NCCCN4CCN(c5ccc(F)cc5)CC4)CC3)nn12 | 838
CN1CCCCCCN(C(=O)Nc2ccc3c(c2)OCCO3)CCC1=O | 745
CC(=O)c1ccc(S(=O)(=O)N2CCc3nc[nH]c3C2)cc1 | 585
O=C(NCC1CCCCC1)C1CCCN(c2ccc(-c3ccccc3)nn2)C1 (configuration not stated) | 762
O=C(NC1CCCCC1)C1CCCN(c2ccncc2)C1 (configuration not stated) | 604
CCCN1C(=O)C(CC(=O)NCC(C)C)Sc2ncccc21 (configuration not stated) | 741
CCn1nnc2cc(-c3noc(C4CC(=O)N(c5ccc(C)cc5)C4)n3)ccc21 (configuration not stated) | 880
O=C(Cn1c2c(c3ccccc31)CCC2)NCCn1ncccc1=O | 710
CCOC(=O)c1cc(S(=O)(=O)NCCC(=O)N2CCN(c3ccccn3)CC2)cn1C | 601
